Numbered stars: 1 amine (or outer) side, 2 acyl side, 3 side chain; on linkers, the order of the positions; unused ones are H or OH. Bridge positions count the residues as written; N and C are the ends. Square brackets hold non-standard residues; d marks the D form. Peptide text beside a SMILES is read from it. * marks the point of attachment. X1 = O=C1C[C@@H](C(=O)[*:2])N([*:1])C[C@H]1CS[C@@H]1CN2CCC1CC2; NMePhe(4-NMe2) = CN[C@@H](Cc1ccc(N(C)C)cc1)C(=O)O; Picolinoyl(3-OH) = O=C(c1ncccc1O)*; Phg = N[C@H](C(=O)O)c1ccccc1; dAbu = CC[C@@H](N)C(=O)O
Assay: solubility in water (as salts / hydrochlorides)
Conditions: product with 0.1N hydrochloric acid and distilled water

Structure (SMILES): CC[C@H]1NC(=O)[C@@H](NC(=O)c2ncccc2O)[C@@H](C)OC(=O)[C@H](c2ccccc2)NC(=O)[C@@H]2CC(=O)[C@H](CS[C@@H]3CN4CCC3CC4)CN2C(=O)[C@H](Cc2ccc(N(C)C)cc2)N(C)C(=O)[C@@H]2CCCN2C1=O [Example 1, 5δ-[(3-Quinuclidinyl)thiomethyl]pristinamycin IA] ({Picolinoyl(3-OH)}-T[dAbu]P[NMePhe(4-NMe2)][X1][Phg]; ester 1-C)
- strength of aqueous solution obtained: 5%
